In ChEMBL document CHEMBL1201862, “PubChem BioAssay data set” (2004):
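Growth conditions: 96-well plates. Treatment: test compound, 48 hours, 5 concentrations. Analysis: linear interpolation between bracketing concentrations; unreached endpoints set to highest concentration. GI50: concentration for 50% inhibition of growth.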 The source made the active and inactive calls. Cut-off read from the data, not from the text of the source: active = GI50 up to about 1.1 µM and inactive = higher.

Experiments:
Experiment in all cases: NCI-60 cell line screen, 48 h
NCI-H522 = test system: NCI-H522
MDA-N = test system: MDA-N
NCI-H460 = test system: NCI-H460
NCI/ADR-RES = test system: NCI/ADR-RES
SW-620 = test system: SW-620
SF-295 = test system: SF-295
Hs-578T = test system: Hs-578T
TK-10 = test system: TK-10
ACHN = test system: ACHN
COLO 205 = test system: COLO 205
MDA-MB-435 = test system: MDA-MB-435
OVCAR-5 = test system: OVCAR-5
HCT-15 = test system: HCT-15
SN12C = test system: SN12C
SF-268 = test system: SF-268
OVCAR-8 = test system: OVCAR-8
HCT-116 = test system: HCT-116
UACC-257 = test system: UACC-257
786-0 = test system: 786-0
CCRF-CEM = test system: CCRF-CEM
Malme-3M = test system: Malme-3M
CAKI-1 = test system: CAKI-1
NCI-H23 = test system: NCI-H23
RPMI-8226 = test system: RPMI-8226
A549 = test system: A549
KM12 = test system: KM12
SK-MEL-28 = test system: SK-MEL-28
SR = test system: SR
RXF 393 = test system: RXF 393
HOP-62 = test system: HOP-62
MCF7 = test system: MCF7
DU-145 = test system: DU-145
BT-549 = test system: BT-549
HL-60 = test system: HL-60
HOP-92 = test system: HOP-92
HCC 2998 = test system: HCC 2998
PC-3 = test system: PC-3
OVCAR-4 = test system: OVCAR-4
MDA-MB-231 = test system: MDA-MB-231
MOLT-4 = test system: MOLT-4
LOX IMVI = test system: LOX IMVI
SK-OV-3 = test system: SK-OV-3
EKVX = test system: EKVX
IGROV-1 = test system: IGROV-1
SK-MEL-5 = test system: SK-MEL-5
SNB-75 = test system: SNB-75
K562 = test system: K562
M14 = test system: M14
UACC-62 = test system: UACC-62
U-251 = test system: U-251
OVCAR-3 = test system: OVCAR-3
SNB-19 = test system: SNB-19
SF-539 = test system: SF-539
SK-MEL-2 = test system: SK-MEL-2
T47D = test system: T47D
UO-31 = test system: UO-31
HT-29 = test system: HT-29
A498 = test system: A498
NCI-H226 = test system: NCI-H226

Measured: GI50

Fc1cccc(F)c1C1SCc2nc3ccc(Cl)cc3n21 (stereo not given)
inactive: NCI-H522 > 100 µM | MDA-N > 100 µM | NCI-H460 > 100 µM | NCI/ADR-RES > 100 µM | SW-620 > 100 µM | SF-295 > 100 µM | Hs-578T > 100 µM | TK-10 > 100 µM | ACHN > 100 µM | COLO 205 > 100 µM | MDA-MB-435 > 100 µM | OVCAR-5 > 100 µM | SN12C > 100 µM | SF-268 > 100 µM | OVCAR-8 > 100 µM | HCT-116 > 100 µM | UACC-257 > 100 µM | 786-0 > 100 µM | CCRF-CEM > 100 µM | Malme-3M > 100 µM | CAKI-1 > 100 µM | NCI-H23 > 100 µM | RPMI-8226 82.4 µM | A549 > 100 µM | KM12 63 µM | SK-MEL-28 > 100 µM | SR 48.4 µM | RXF 393 > 100 µM | HOP-62 > 100 µM | MCF7 > 83 µM | DU-145 > 100 µM | BT-549 > 100 µM | HL-60 40.5 µM | HOP-92 > 100 µM | HCC 2998 > 100 µM | PC-3 > 82.8 µM | OVCAR-4 85.3 µM | MDA-MB-231 > 100 µM | MOLT-4 > 100 µM | LOX IMVI > 100 µM | SK-OV-3 > 100 µM | EKVX > 100 µM | IGROV-1 > 100 µM | SK-MEL-5 85.3 µM | SNB-75 41.1 µM | K562 51.1 µM | M14 > 100 µM | UACC-62 > 100 µM | U-251 > 100 µM | OVCAR-3 > 100 µM | SNB-19 > 100 µM | SF-539 > 100 µM | SK-MEL-2 > 100 µM | T47D 95.3 µM | UO-31 > 100 µM | HT-29 > 85.7 µM
> 100 µM: HCT-15

O=C1N[C@@H]([C@H](CCCCCO)OC(=O)c2ccccc2)CO1
> 100 µM: HCT-15
inactive: A498 > 100 µM | MDA-N > 100 µM | NCI-H460 > 100 µM | NCI/ADR-RES > 100 µM | SW-620 > 100 µM | SF-295 > 100 µM | Hs-578T > 100 µM | TK-10 > 100 µM | ACHN > 100 µM | COLO 205 > 10 µM | MDA-MB-435 > 100 µM | OVCAR-5 > 100 µM | SN12C > 100 µM | OVCAR-8 > 100 µM | HCT-116 > 100 µM | UACC-257 > 100 µM | 786-0 > 100 µM | CCRF-CEM > 100 µM | CAKI-1 > 100 µM | RPMI-8226 > 100 µM | A549 > 100 µM | KM12 > 100 µM | SK-MEL-28 > 100 µM | SR > 100 µM | RXF 393 > 100 µM | HOP-62 > 100 µM | MCF7 > 100 µM | DU-145 > 100 µM | BT-549 > 100 µM | HL-60 > 100 µM | HOP-92 > 100 µM | PC-3 > 100 µM | OVCAR-4 > 100 µM | MDA-MB-231 3.18 µM | NCI-H226 > 100 µM | MOLT-4 > 100 µM | LOX IMVI > 100 µM | SK-OV-3 > 100 µM | EKVX > 100 µM | IGROV-1 > 100 µM | SK-MEL-5 > 100 µM | SNB-75 > 100 µM | K562 > 100 µM | UACC-62 > 100 µM | U-251 > 100 µM | OVCAR-3 > 100 µM | SNB-19 > 100 µM | SF-539 > 100 µM | SK-MEL-2 > 100 µM | T47D > 100 µM | UO-31 > 100 µM | HT-29 > 100 µM
